How the values were obtained:
[1] = stability stress testing of crystalline form; assay type: physicochemical; details: ambient light, 40° C. and 75% relative humidity, 7 days
Text: Form VIII appeared physically stable upon stability stress testing.

[2] = tested on: advanced solid malignancies; assay: ProGem1 phase I study: clinical efficacy; assay type: in vivo, human; details: patients with advanced progressive cancers who have exhausted all standard therapeutic options, many resistant or refractory to prior nucleoside analogue therapy
Text: (§1) ProGem1 was a first-time-in-human (FTIH), phase I, open label, two stage study to investigate the safety, tolerability, clinical efficacy, pharmacokinetics (PK) and pharmacodynamics (PD) of NUC-1031 given in two parallel dosing schedules in subjects with advanced solid malignancies (EudraCT Number: 2011-005232-26). Subjects had the following tumour types at study entry: colorectal cancer (7 subjects), unknown primary (3), ovarian cancer (12), breast cancer (4), pancreatic cancer (9), cholangiocarcinoma (7), endometrial cancer (3), cervical cancer (2), lung cancer (7), mesothelioma (3), oesophageal cancer (3), cancer of the fallopian tube (1), trophoblast (1), renal cancer (1), gastric cancer (1), anal cancer (1), cancer of the thymus (1) and osteosarcoma (1).

[3] = ProGem1 phase I study: pharmacokinetics (intracellular dFdCTP, dFdU); assay type: in vivo, human; details: relative to levels normally associated with gemcitabine
Text: as §1

| change in crystalline form upon storage [1] | decrease in purity upon storage [1] | Structure (SMILES) | anti-tumour activity [2] | levels of the potentially toxic metabolite 2′,2′-difluoro-2′-deoxyuridine (dFdU) released, relative to gemcitabine [3] |
| --- | --- | --- | --- | --- |
| No change in crystalline form | no decrease in purity | C[C@H](N[P@](=O)(OC[C@H]1O[C@@H](n2ccc(N)nc2=O)C(F)(F)C1O)Oc1ccccc1)C(=O)OCc1ccccc1 (stereo partly shown) [Form VIII] | – | – |
| – | – | C[C@H](NP(=O)(OC[C@H]1O[C@@H](n2ccc(N)nc2=O)C(F)(F)C1O)Oc1ccccc1)C(=O)OCc1ccccc1 (stereo partly shown) [NUC-1031] | anti-tumour activity | less than half |
